Source: US20190374563A1, “TREATMENT OF KLEBSIELLA PNEUMONIAE INFECTIONS WITH ANTIBACTERIAL AMINOGLYCOSIDE COMPOUNDS” (Achaogen, Inc., priority 2009, published 2019)
Converted amounts (≈) assume the structure as drawn. Where two headings read alike, the source gives them in different places.

Key:
[1] = tested on: E. coli ATCC 25922 (AECO001); assay: MIC assay, CLSI broth microdilution; type: cell-based; details: Escherichia coli
Experimental: (§1) Minimum inhibitory concentrations (MIC) were determined by reference Clinical and Laboratory Standards Institute (CLSI) broth microdilution methods per M7-A7 [2006]. Quality control ranges utilizing E. coli ATCC 25922, P. aeruginosa ATCC 27853 and S. aureus ATCC 29213, and interpretive criteria for comparator agents were as published in CLSI M100-S17 [2007]. Briefly, serial two-fold dilutions of the test compounds were prepared at 2× concentration in Mueller Hinton Broth. The compound dilutions were mixed in 96-well assay plates in a 1:1 ratio with bacterial inoculum. The inoculum was prepared by suspension of a colony from an agar plate that was prepared the previous day. Bacteria were suspended in sterile saline and added to each assay plate to obtain a final concentration of 5×10^5 CFU/mL. The plates were incubated at 35° C. for 20 hours in ambient air.

[2] = tested on: P. aeruginosa ATCC 27853 (APAE001); assay: MIC assay, CLSI broth microdilution; type: cell-based; details: Pseudomonas aeruginosa
Experimental: as §1

[3] = ATCC25922, read-out: MIC AECO001
[4] = ATCC27853, read-out: MIC APAE001

| SMILES | MIC [1, 3] [µg/mL] | MIC [2, 4] [µg/mL] | MIC ([1]; Table 1, AECO001 is ATCC25922, read-out: MIC AECO001) [µg/mL] | MIC ([2]; Table 1, APAE001 is ATCC27853, read-out: MIC APAE001) [µg/mL] |
| --- | --- | --- | --- | --- |
| CN[C@@H]1[C@@H](O)[C@@H](O[C@@H]2[C@@H](O)[C@H](O[C@H]3OC(CNCC4CC4)=CC[C@H]3N)[C@@H](N)C[C@H]2NC(=O)[C@H](O)CCN)OC[C@]1(C)O [Example 5, 6′-(Methyl-cyclopropyl)-1-(4-amino-2(R)-hydroxy-butyryl)-sisomicin] | < 1 | 1 to 16 (≈ 1.66 to 26.5 µM) | – | – |
| CN[C@@H]1[C@@H](O)[C@@H](O[C@@H]2[C@@H](O)[C@H](O[C@H]3OC(CN)=CC[C@H]3NCCCCN)[C@@H](N)C[C@H]2NC(=O)[C@@H](O)CCN)OC[C@]1(C)O [Example 102, 2′-(4-Amino-butyl)-1-(4-amino-2(S)-hydroxy-butyryl)-sisomicin] | < 1 | 1 to 16 (≈ 1.61 to 25.8 µM) | – | – |
| CN[C@@H]1[C@@H](O)[C@@H](O[C@@H]2[C@@H](O)[C@H](O[C@H]3OC(CNC[C@H]4C[C@@H](N)[C@@H](O)C4)=CC[C@H]3N)[C@@H](N)C[C@H]2NC(=O)[C@@H](O)CN)OC[C@]1(C)O [Example 69, 6′-(Methyl-1(R)-amino-2(S)-hydroxy-cyclopent-4(S)-yl)-1-(3-amino-2(S)-hydroxy-propionyl)-sisomicin] | < 1 | 1 to 16 (≈ 1.54 to 24.7 µM) | – | – |
| CN[C@@H]1[C@@H](O)[C@@H](O[C@@H]2[C@@H](O)[C@H](O[C@H]3OC(CNCC(O)CCN)=CC[C@H]3N)[C@@H](N)C[C@H]2NC(=O)[C@@H](O)CN)OC[C@]1(C)O (stereo partly drawn) [Example 68, 6′-(2-Hydroxy-4-amino-butyl)-1-(3-amino-2(S)-hydroxy-propionyl)-sisomicin] | 1 to 16 (≈ 1.61 to 25.7 µM) | 1 to 16 (≈ 1.61 to 25.7 µM) | – | – |
| CN[C@@H]1[C@@H](O)[C@@H](O[C@@H]2[C@@H](O)[C@H](O[C@H]3OC(CNCCO)=CC[C@H]3N)[C@@H](N)C[C@H]2NS(=O)(=O)CCN)OC[C@]1(C)O [Example 29, 6′-(2-Hydroxy-ethyl)-1-(2-amino-ethylsulfonamide)-sisomicin] | 1 to 16 (≈ 1.67 to 26.7 µM) | > 16 | – | – |
| CN[C@@H]1[C@@H](O)[C@@H](O[C@@H]2[C@@H](O)[C@H](O[C@H]3OC(CNCCCN)=CC[C@H]3N)[C@@H](N)C[C@H]2NC(=O)CO)OC[C@]1(C)O [Example 24, 6′-(3-Amino-propyl)-1-(2-hydroxy-acetyl)-sisomicin] | 1 to 16 (≈ 1.78 to 28.4 µM) | 1 to 16 (≈ 1.78 to 28.4 µM) | – | – |
| CN[C@@H]1[C@@H](O)[C@@H](O[C@@H]2[C@@H](O)[C@H](O[C@H]3OC(CN)=CC[C@H]3NC(=O)C(N)CCCN)[C@@H](N)C[C@H]2NC(=O)[C@@H](O)CCN)OC[C@]1(C)O (stereo partly drawn) [Example 99, 2′-(2,5-Diamino-pentoyl)-1-(4-amino-2(S)-hydroxy-butyryl)-sisomicin] | 1 to 16 (≈ 1.51 to 24.1 µM) | 1 to 16 (≈ 1.51 to 24.1 µM) | – | – |
| CN[C@@H]1[C@@H](O)[C@@H](O[C@@H]2[C@@H](O)[C@H](O[C@H]3OC(CNCC(O)CCN)=CC[C@H]3N)[C@@H](N)C[C@H]2NC(=O)C(O)C2CNC2)OC[C@]1(C)O (stereo partly drawn) [Example 77, 6′-(2-Hydroxy-4-amino-butyl)-1-(2-(azetidin-3-yl)-2-hydroxy-acetyl)-sisomicin] | 1 to 16 (≈ 1.54 to 24.7 µM) | 1 to 16 (≈ 1.54 to 24.7 µM) | – | – |
| CN[C@@H]1[C@@H](O)[C@@H](O[C@@H]2[C@@H](O)[C@H](O[C@H]3OC(CNC[C@H](O)C(=O)O)=CC[C@H]3N)[C@@H](N)C[C@H]2NC(=O)[C@@H](O)CCN)OC[C@]1(C)O [Example 50, 6′-(2(S)-Hydroxy-3-propanoic)-1-(4-amino-2(S)-hydroxy-butyryl)-sisomicin] | > 16 | > 16 | – | – |
| CN[C@@H]1[C@@H](O)[C@@H](O[C@@H]2[C@@H](O)[C@H](O[C@H]3OC(CNCC(O)CCN)=CC[C@H]3N)[C@@H](N)C[C@H]2NC(=O)C2(O)CCNC2)OC[C@]1(C)O (stereo partly drawn) [Example 35] | < 1 | 1 to 16 (≈ 1.54 to 24.7 µM) | – | – |
| CN[C@@H]1[C@@H](O)[C@@H](O[C@@H]2[C@@H](O)[C@H](O[C@H]3OC(CN)=CC[C@H]3NC(=O)CN)[C@@H](N)C[C@H]2NC(=O)[C@@H](O)CCN)OC[C@]1(C)O [Example 87, 2′-(2-Amino-acetyl)-1-(4-amino-2(S)-hydroxy-butyryl)-sisomicin] | 1 to 16 (≈ 1.65 to 26.4 µM) | 1 to 16 (≈ 1.65 to 26.4 µM) | – | – |
| CN[C@@H]1[C@@H](O)[C@@H](O[C@@H]2[C@@H](O)[C@H](O[C@H]3OC(CN)=CC[C@H]3NC(=O)C3CCCN3)[C@@H](N)C[C@H]2NC(=O)[C@@H](O)CCN)OC[C@]1(C)O (stereo partly drawn) [Example 90] | < 1 | 1 to 16 (≈ 1.55 to 24.8 µM) | – | – |
| CN[C@@H]1[C@@H](O)[C@@H](O[C@@H]2[C@@H](O)[C@H](O[C@H]3OC(CNC[C@H]4C[C@H](N)C4)=CC[C@H]3N)[C@@H](N)C[C@H]2NC(=O)C2(O)CNC2)OC[C@]1(C)O [Example 63] | < 1 | 1 to 16 (≈ 1.59 to 25.4 µM) | – | – |
| CN[C@@H]1[C@@H](O)[C@@H](O[C@@H]2[C@@H](O)[C@H](O[C@H]3OC(CN)=CC[C@H]3NCC(O)CN)[C@@H](N)C[C@H]2NC(=O)[C@@H](O)CCN)OC[C@]1(C)O (stereo partly drawn) [Example 101, 2′-(2-Hydroxy-3-amino-propyl)-1-(4-amino-2(S)-hydroxy-butyryl)-sisomicin] | < 1 | 1 to 16 (≈ 1.61 to 25.7 µM) | – | – |
| CN[C@@H]1[C@@H](O)[C@@H](O[C@@H]2[C@@H](O)[C@H](O[C@H]3OC(CNCC(O)CCCN)=CC[C@H]3N)[C@@H](N)C[C@H]2NC(=O)[C@@H](O)CCN)OC[C@]1(C)O (stereo partly drawn) [Example 32, 6′-(2-Hydroxy-5-amino-pentyl)-1-(4-amino-2(S)-hydroxy-butyryl)-sisomicin] | < 1 | 1 to 16 (≈ 1.54 to 24.6 µM) | – | – |
| CN[C@@H]1[C@@H](O)[C@@H](O[C@@H]2[C@@H](O)[C@H](O[C@H]3OC(CNCCO)=CC[C@H]3N)[C@@H](N)C[C@H]2NC(=O)C2(O)CC(N)C2)OC[C@]1(C)O (stereo partly drawn) [Example 62] | < 1 | 1 to 16 (≈ 1.65 to 26.5 µM) | – | – |
| CN[C@@H]1[C@@H](O)[C@@H](O[C@@H]2[C@@H](O)[C@H](O[C@H]3OC(CNCCCC(O)CN)=CC[C@H]3N)[C@@H](N)C[C@H]2NC(=O)[C@@H](O)CN)OC[C@]1(C)O (stereo partly drawn) [Example 80, 6′-(4-Hydroxy-5-amino-pentyl)-1-(3-amino-2(S)-hydroxy-propionyl)-sisomicin] | < 1 | < 1 | – | – |
| CN[C@@H]1[C@@H](O)[C@@H](O[C@@H]2[C@@H](O)[C@H](O[C@H]3OC(CNCCC4CNCCN4C)=CC[C@H]3N)[C@@H](N)C[C@H]2NC(=O)[C@@H](O)CCN)OC[C@]1(C)O (stereo partly drawn) [Example 45] | – | – | < 1 | 1 to 16 (≈ 1.48 to 23.7 µM) |
| CN[C@@H]1[C@@H](O)[C@@H](O[C@@H]2[C@@H](O)[C@H](O[C@H]3OC(CNCCO)=CC[C@H]3N)[C@@H](N)C[C@H]2NC(=O)[C@H](O)CCN)OC[C@]1(C)O [Example 2, 6′-(2-Hydroxy-ethyl)-1-(4-amino-2(R)-hydroxy-butyryl)-sisomicin] | 1 to 16 (≈ 1.69 to 27 µM) | 1 to 16 (≈ 1.69 to 27 µM) | – | – |
| CN[C@@H]1[C@@H](O)[C@@H](O[C@@H]2[C@@H](O)[C@H](O[C@H]3OC(CNCC(O)CO)=CC[C@H]3N)[C@@H](N)C[C@H]2NC(=O)CO)OC[C@]1(C)O (stereo partly drawn) [Example 23, 6′-(2-Hydroxy-propanol)-1-(2-hydroxy-acetyl)-sisomicin] | > 16 | > 16 | – | – |
| CN[C@@H]1[C@@H](O)[C@@H](O[C@@H]2[C@@H](O)[C@H](O[C@H]3OC(CNC[C@H]4C[C@H](N)C4)=CC[C@H]3N)[C@@H](N)C[C@H]2NC(=O)[C@@H](O)CCN)OC[C@]1(C)O [Example 33, 6′-(Methyl-trans-3-amino-cyclobutyl)-1-(4-amino-2(S)-hydroxy-butyryl)-sisomicin] | < 1 | 1 to 16 (≈ 1.58 to 25.3 µM) | – | – |
| CN[C@@H]1[C@@H](O)[C@@H](O[C@@H]2[C@@H](O)[C@H](O[C@H]3OC(CNCC(O)CN)=CC[C@H]3N)[C@@H](N)C[C@H]2NC(=O)C2(O)CCNC2)OC[C@]1(C)O (stereo partly drawn) [Example 42, 6′-(2-Hydroxy-3-amino-propyl)-1-(3-hydroxy-pyrrolidin-3-yl-acetyl)-sisomicin] | 1 to 16 (≈ 1.58 to 25.2 µM) | 1 to 16 (≈ 1.58 to 25.2 µM) | – | – |
| CN[C@@H]1[C@@H](O)[C@@H](O[C@@H]2[C@@H](O)[C@H](O[C@H]3OC(CNCCO)=CC[C@H]3N)[C@@H](N)C[C@H]2NC(=O)[C@H](O)CN)OC[C@]1(C)O [Example 9, 6′-(2-Hydroxy-ethyl)-1-(3-amino-2(R)-hydroxy-propionyl)-sisomicin] | 1 to 16 (≈ 1.73 to 27.6 µM) | > 16 | – | – |
| CN[C@@H]1[C@@H](O)[C@@H](O[C@@H]2[C@@H](O)[C@H](O[C@H]3OC(CNC[C@H]4C[C@H](O)CN4)=CC[C@H]3N)[C@@H](N)C[C@H]2NC(=O)[C@@H](O)CN)OC[C@]1(C)O [Example 53, 6′-(Methyl-4(S)-hydroxy-pyrrolidin-2(R)-yl)-1-(3-amino-2(S)-hydroxy-propionyl)-sisomicin] | 1 to 16 (≈ 1.58 to 25.2 µM) | > 16 | – | – |
| CN[C@@H]1[C@@H](O)[C@@H](O[C@@H]2[C@@H](O)[C@H](O[C@H]3OC(CNCCN)=CC[C@H]3N)[C@@H](N)C[C@H]2NC(=O)[C@@H](O)CCN)OC[C@]1(C)O [Example 38, 6′-(2-Amino-ethyl)-1-(4-amino-2(S)-hydroxy-butyryl)-sisomicin] | < 1 | 1 to 16 (≈ 1.69 to 27 µM) | – | – |
| CNCC(=O)N[C@@H]1CC=C(CN)O[C@@H]1O[C@H]1[C@H](O)[C@@H](O[C@H]2OC[C@](C)(O)[C@H](NC)[C@H]2O)[C@H](NC(=O)[C@@H](O)CCN)C[C@@H]1N [Example 86, 2′-(N-methyl-amino-acetyl)-1-(4-amino-2(S)-hydroxy-butyryl)-sisomicin] | 1 to 16 (≈ 1.61 to 25.8 µM) | 1 to 16 (≈ 1.61 to 25.8 µM) | – | – |
| CN[C@@H]1[C@@H](O)[C@@H](O[C@@H]2[C@@H](O)[C@H](O[C@H]3OC(CNCC(C)(C)CN)=CC[C@H]3N)[C@@H](N)C[C@H]2NC(=O)[C@@H](O)CN)OC[C@]1(C)O [Example 51, 6′-(2,2-Dimethyl-3-amino-propyl)-1-(3-amino-2(S)-hydroxy-propionyl)-sisomicin] | < 1 | > 16 | – | – |
